Where two headings read alike, the source gives them in different places.
Key:
[1] = tested on: third instar larvae of Heliothis virescens; assay: Insecticidal test on sprayed potted cotton and tobacco plants, initial and residual effect; assay type: in vivo
Experimental: Potted cotton and tobacco plants respectively were sprayed with 125 ppm of active ingredient in the form of an aqueous emulsion. After the coating had dried, the treated plants were infested with third instar larvae of Heliothis virescens. The tests were running under greenhouse conditions at 24° C and 60% relative humitidy. Assessments to evaluate the initial effect of the immediate acitivity of the active ingredient were carried out 4, 24 and 48 hours after the infestation of the plants with the pests. Assessments to evaluate the […] of the activity over a prolonged period of the active ingredient were carried out as follows: the coated test plants were infested with the test individuals 2 and 8 days respectively after the application of the active ingredient. Each test was checked after 4, 24 and 48 hours. Test compounds

[2] = Acute oral toxicity in rat; details: in vivo, per os
Tetranychus urticae = assay: Acaricidal action on Phaseolus vulgaris; assay type: in vivo; details: larvae, adults and eggs evaluated after 7 days; greenhouse 25° C
Experimental: The number of living and dead larvae, adults and eggs were evaluated after 7 days under a stereoscopic microscope and the result expressed in percentages. During the "interim", the treated plants were kept in greenhouse compartments at 25° C.

Anthrenus vorax = assay: Talcum dust on filter paper, dosage for 100% control within 24 hours; assay type: in vivo; details: 5% talcum dust on filter paper
Experimental: (§1) A dust on a base of talcum and containing 5% active ingredient was applied to filter paper in concentrations of 100, 50, 25, 12.5 6.2 and 3.1 mg of active substance per m^ 2. Onto each of the treated substrates were applied 5 Necrobia rufipes, Rhyzoperta dominica, Anthrenus vorax and Tribolium confusum individuals respectively. Evaluation took place 24 hours later. Test compounds were same as set forth in Example 2.

Necrobia rufipes = assay: as above; assay type: in vivo; details: 5% talcum dust on filter paper
Experimental: as §1

Rhyzoperta dominica = assay: as above; assay type: in vivo; details: 5% talcum dust on filter paper
Experimental: as §1

Tribolium confusum = assay: as above; assay type: in vivo; details: 5% talcum dust on filter paper
Experimental: as §1

cotton pests = assay: Comparison of activity with closest known compounds; assay type: in vivo; details: on at least the same toxicity level; especially initial effect towards cotton pests
[3] = 125 ppm aqueous emulsion, initial effect, assessment 4 h after infestation, 24° C, 60% relative humidity, read-out: % mortality, initial, 4 hours
[4] = 125 ppm, infested 2 days after application, assessment at 24 h, read-out: % mortality, residual 2d, 24 hours
[5] = 125 ppm, infested 2 days after application, assessment at 48 h, read-out: % mortality, residual 2d, 48 hours
[6] = 125 ppm, infested 8 days after application, assessment at 4 h, read-out: % mortality, residual 8d, 4 hours
[7] = 125 ppm, infested 8 days after application, assessment at 24 h, read-out: % mortality, residual 8d, 24 hours
[8] = 125 ppm, infested 8 days after application, assessment at 48 h, read-out: % mortality, residual 8d, 48 hours
[9] = 125 ppm, initial effect, assessment 24 h after infestation, read-out: % mortality, initial, 24 hours
[10] = 125 ppm, initial effect, assessment 48 h after infestation, read-out: % mortality, initial, 48 hours
[11] = 4 h, read-out: % mortality, residual 2d, 4 hours

Compound	mortality at 125 ppm [1, 3]	mortality at 125 ppm ([1]; 125 ppm, infested 2 days after application, assessment at 4 h, read-out: % mortality, residual 2d, 4 hours)	mortality at 125 ppm [1, 4]	mortality at 125 ppm [1, 5]	mortality at 125 ppm [1, 6]	mortality at 125 ppm [1, 7]	mortality at 125 ppm [1, 8]	mortality at 125 ppm [1, 9]	mortality at 125 ppm [1, 10]	LD50 [2]	acaricidal activity (Tetranychus urticae)	Dosage needed which provides a 100% control within 24 hours (Anthrenus vorax)	Dosage needed which provides a 100% control within 24 hours (Necrobia rufipes)	Dosage needed which provides a 100% control within 24 hours (Rhyzoperta dominica)	Dosage needed which provides a 100% control within 24 hours (Tribolium confusum)	activities versus the closest known compounds (cotton pests)	mortality at 125 ppm [1, 11]
CCCSP(=O)(OCC)Oc1ccc(Br)cc1Cl (centres unmarked) [I, O-ethyl-S-N-propyl-O-(2-chloro-4-bromophenyl)-thiophosphate]	100%	100%	100%	100%	50%	100%	100%	100%	100%	400 to 900 mg/kg	good activity	25 mg a.i./m^2	3.1 mg a.i./m^2	25 mg a.i./m^2	50 mg a.i./m^2	surprisingly superior activities	–
CCCSP(=O)(OCC)Oc1ccc(Cl)cc1Cl (centres unmarked) [II, O-ethyl-S-n-propyl-O-(2,4-dichlorophenyl)-thiophosphoric acid ester]	80%	–	100%	100%	30%	50%	100%	90%	100%	400 mg/kg	–	50 mg a.i./m^2	6.2 mg a.i./m^2	50 mg a.i./m^2	100 mg a.i./m^2	–	50%
CCCSP(=O)(OCC)Oc1ccc(Br)cc1Br (centres unmarked) [III, O-ethyl-S-n-propyl-O-(2,4-dibromophenyl)-thiophosphoric acid ester]	75%	–	100%	100%	0%	5%	55%	100%	100%	300 mg/kg	–	100 mg a.i./m^2	6.2 mg a.i./m^2	100 mg a.i./m^2	> 100 mg a.i./m^2	–	30%

Reference: patent US3992533A, “O-ethyl-S-N-propyl-O-(2-chloro-4-bromophenyl)-thiophosphate” (priority 1971, dated 1976)
